Assays:
BALB/c mice = assay: In vivo mRNA delivery in mice with DNPs, whole-body bioluminescence imaging (IVIS)
Method: (§1) The exposure time was 1 min.
Luminescence characterization for in vivo transfection experiments employed bioluminescence imaging with an IVIS Spectrum imaging system (PerkinElmer, Waltham, MA). Mice were anesthetized with 3% of isoflurane (Piramal Healthcare Limited) and intraperitoneally (i.p.) administered with D-luciferin (Regis Technologies) at a dose of 150 mg/kg of body weight. Ten minutes post administration of D-luciferin, mice were placed on the imaging platform while being maintained on isoflurane via a nose cone and imaged using an exposure time of 60 seconds. […] To quantify luminescent flux, an oval ROI was placed over each organ of interest and analyzed.
(§2) Tissue luminescence signal was measured on the IVIS imaging system using an exposure time of 60 seconds using medium binning (binning=8) to ensure that the signal obtained was within operative detection range. […] Bioluminescence imaging was performed as described above.
Luminescence Characterization for In Vivo Transfection Experiments: bioluminescence imaging was performed with an IVIS Spectrum imaging system (PerkinElmer, Waltham, MA).

liver = assay: In vivo mRNA delivery, IVIS imaging of organs: liver; design: species or system mice; key to Organs with luminescence: liver: strong: Strong meant the luminescence intensity in that organ was relatively high, compared to other organs; weak: Weak meant the luminescence intensity in that organ was relatively low, compared to other organs; details: for Organs with luminescence: liver: Table 17, mice, IVIS, 4-6 h after injection, intensity relative to other organs
Method: as §1, §2
Tissue luminescence signal was measured on the IVIS imaging system using a certain exposure time (60, 30 or 15 seconds) and medium binning (binning=8) to ensure that the signal obtained was within operative detection range.

[1] = Dimensions (size, PDI) of DNPs co-assembled from IAJDs and Luc-mRNA by DLS; format: physicochemical
How it was run: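 Hydrodynamic size and PDI were read by dynamic light scattering at 23 °C, 175° backscatter, 633 nm. Particles formed by fast injection of ethanolic IAJD stock (80 mg/mL) into nucleoside-modified luciferase mRNA (stock 4.0 mg/mL) in 10 mM acetate pH 4.0, 5 s vortex.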

[2] = Table 16, DNPs from IAJD 4 mg/mL and Luc-mRNA 0.10 mg/mL by injection in acetate buffer (10 mM, pH 4.0)
[3] = Table 17, DNPs used in vivo, IAJD 4 mg/mL, Luc-mRNA 0.10 mg/mL, acetate pH 4.0
[4] = Table 20, nonsymmetric IAJDs and MC3-Luc-mRNA
[5] = Table 12, DNPs, IAJD 4 mg/mL + Luc-mRNA 0.10 mg/mL, acetate buffer 10 mM pH 4.0
[6] = Table 13, DNPs, IAJD 4 mg/mL + Luc-mRNA 0.10 mg/mL, acetate buffer pH 4.0
[7] = Table 14, DNPs, IAJD 4 mg/mL + Luc-mRNA 0.10 mg/mL, acetate buffer pH 4.0

Compound | In vivo activity (total flux, p/s) (BALB/c mice; Table 19, nonsymmetric IAJDs) | Organs with luminescence: liver (liver) | PDI [1, 2] | Size (d, nm) [1, 2] | PDI [1, 3] | Size (d, nm) [1, 3] | In vivo activity (total flux, p/s) (BALB/c mice; [4]) | Organs with luminescence: liver (weak/strong) (liver; Table 14, imaging 5 h after injection) | PDI [1, 5] | Size (d, nm) [1, 5] | PDI [1, 6] | Size (d, nm) [1, 6] | PDI [1, 7] | Size (d, nm) [1, 7]
CCCCCCCCCCCCCCCOc1cc(COC(=O)CCCN2CCN(CCO)CC2)cc(OCC(CC)CCCC)c1 (centres unmarked) [IAJD 136, 3-((2-Ethylhexyl)oxy)-5-(pentadecyloxy)benzyl 4-(4-(2-hydroxyethyl)piperazin-1-yl)butanoate] | 1.04 × 10^7 p/s | liver (weak), | 0.307 | 149 nm | 0.307 | 149 nm | – | – | – | – | – | – | – | –
CCCCCCCCCCCCCOc1cc(COC(=O)CCCN2CCN(C)CC2)cc(OCC(CC)CCCC)c1 (centres unmarked) [IAJD 161, 3-((2-Ethylhexyl)oxy)-5-(tridecyloxy)benzyl 4-(4-methylpiperazin-1-yl)butanoate] | 8.48 × 10^7 p/s | liver (strong), | 0.235 | 129 nm | 0.235 | 129 nm | – | – | – | – | – | – | – | –
CCCCCCCCCCCCCCOc1cc(COC(=O)CCCN2CCN(CCO)CC2)cc(OCCCCCCCCCCCCC)c1 [IAJD 172, 3-(Tetradecyloxy)-5-(tridecyloxy)benzyl 4-(4-(2-hydroxyethyl)piperazin-1-yl)butanoate] | 6.82 × 10^7 p/s | liver (weak), | 0.203 | 235 nm | 0.203 | 235 nm | – | – | – | – | – | – | – | –
CCCCCCCCCCCCCCCCOc1cc(COC(=O)CCCN2CCN(CCO)CC2)cc(OCCCCCCCCCCCCCCC)c1 [IAJD 150, 3-(Hexadecyloxy)-5-(pentadecyloxy)benzyl 4-(4-(2-hydroxyethyl)piperazin-1-yl)butanoate] | 3.47 × 10^7 p/s | liver (weak), | 0.454 | 285 nm | 0.454 | 285 nm | – | – | – | – | – | – | – | –
CCCCCCCCCCCCCCOc1cc(COC(=O)CCCN2CCN(C)CC2)cc(OCCCCCCCCCCCCC)c1 [IAJD 171, 3-(Tetradecyloxy)-5-(tridecyloxy)benzyl 4-(4-methylpiperazin-1-yl)butanoate] | 7.68 × 10^7 p/s | liver (strong), | 0.268 | 174 nm | 0.268 | 174 nm | 7.68 × 10^7 p/s | – | – | – | – | – | – | –
CCCCCCCCCCCCCCCOc1cc(COC(=O)CCCN2CCN(C)CC2)cc(OCCCCCCCCCCC)c1 [IAJD 118, 3-(Pentadecyloxy)-5-(undecyloxy)benzyl 4-(4-methylpiperazin-1-yl)butanoate] | 1.46 × 10^7 p/s | liver (weak), | 0.278 | 104 nm | 0.278 | 104 nm | – | – | – | – | – | – | – | –
CCCCCCCCCCCCCCCCCCOc1cc(COC(=O)CCCN2CCN(CCO)CC2)cc(OCCCCCCCCCCC)c1 [IAJD 128, 3-(Octadecyloxy)-5-(undecyloxy)benzyl 4-(4-(2-hydroxyethyl)piperazin-1-yl)butanoate] | 5.53 × 10^7 p/s | liver (weak), | 0.381 | 291 nm | 0.381 | 291 nm | 5.53 × 10^7 p/s | – | – | – | – | – | – | –
CCCCCCCCCCCCCCCCOc1cc(COC(=O)CCCN2CCN(C)CC2)cc(OCCCCCCCCCCCCC)c1 [IAJD 173, 3-(Hexadecyloxy)-5-(tridecyloxy)benzyl 4-(4-methylpiperazin-1-yl)butanoate] | 1.23 × 10^8 p/s | liver (strong), | 0.301 | 139 nm | 0.301 | 139 nm | 1.23 × 10^8 p/s | – | – | – | – | – | – | –
CCCCCCCCCCCCCCCCCCOc1cc(COC(=O)CCCN2CCN(CCO)CC2)cc(OCCCCCCCCCCCCCCC)c1 [IAJD 154, 3-(Octadecyloxy)-5-(pentadecyloxy)benzyl 4-(4-(2-hydroxyethyl)piperazin-1-yl)butanoate] | 2.39 × 10^7 p/s | liver (weak), | 0.407 | 429 nm | 0.407 | 429 nm | 2.39 × 10^7 p/s | – | – | – | – | – | – | –
CCCCCCCCCCCOc1cc(COC(=O)CCCN2CCN(C)CC2)cc(OCCCCCCCCCC)c1 [IAJD 114, 3-(Decyloxy)-5-(undecyloxy)benzyl 4-(4-methylpiperazin-1-yl)butanoate] | 3.56 × 10^6 p/s | liver (weak), | 0.351 | 105 nm | 0.351 | 105 nm | – | – | – | – | – | – | – | –
CCCCCCCCCCCCCCCCCOc1cc(COC(=O)CCCN2CCN(CCO)CC2)cc(OCCCCCCCCCCCCCCC)c1 [IAJD 152, 3-(Heptadecyloxy)-5-(pentadecyloxy)benzyl 4-(4-(2-hydroxyethyl)piperazin-1-yl)butanoate] | 1.97 × 10^7 p/s | Liver (weak), | 0.370 | 281 nm | 0.370 | 281 nm | – | – | – | – | – | – | – | –
CCCCCCCCCCCCCCCOc1cc(COC(=O)CCCN2CCN(C)CC2)cc(OCC(CC)CCCC)c1 (centres unmarked) [IAJD 135, 3-((2-Ethylhexyl)oxy)-5-(pentadecyloxy)benzyl 4-(4-methylpiperazin-1-yl)butanoate] | 1.22 × 10^7 p/s | liver (strong), | 0.267 | 92 nm | 0.267 | 92 nm | – | – | – | – | – | – | – | –
CCCCCCCCCCCCCOc1cc(COC(=O)CCCN2CCN(CCO)CC2)cc(OCCCCCCCCCCC)c1 [IAJD 117, 3-(Tridecyloxy)-5-(undecyloxy)benzyl 4-(4-(2-hydroxyethyl)piperazin-1-yl)butanoate] | 8.64 × 10^6 p/s | liver (weak), | 0.367 | 255 nm | 0.367 | 255 nm | – | – | – | – | – | – | – | –
CCCCCCCCCCCCOc1cc(COC(=O)CCCN2CCN(CCO)CC2)cc(OCCCCCCCCCCCC)c1 [IAJD 71, 3,5-Bis(dodecyloxy)benzyl 4-(4-(2-hydroxyethyl)piperazin-1-yl)butanoate] | – | liver (weak), | – | – | 0.451 | 237 nm | – | liver (weak), | 0.451 | 237 nm | 0.451 | 237 nm | 0.451 | 237 nm

— patent US20240252677A1, “ONE-COMPONENT DELIVERY SYSTEM FOR NUCLEIC ACIDS” (The Trustees of the University of Pennsylvania, priority 2021, published 2024)
